Results: the kinase profiling compilation of Christmann-Franck et al. (2016)

Legend:
Experiment in all cases: radiometric filter-binding kinase assay, Kinase HotSpot
Details in all cases: compound 0.5 µM; ATP 10 µM
NEK7 (human) = NEK7 (human) (UniProt Q8TDX7)
MST4 (human) = MST4 (human) (UniProt Q9P289)
DMPK (human) = DMPK (human) (UniProt Q09013)
GSG2 (human) = GSG2 (human) (UniProt Q8TF76)
DCLK2 (human) = DCLK2 (human) (UniProt Q8N568)
YES1 (human) = YES1 (human) (UniProt P07947)
RPS6KA5 KD2 (human) = RPS6KA5 KD2 (human) (UniProt O75582)
MARK4 (human) = MARK4 (human) (UniProt Q96L34)
PAK4 (human) = PAK4 (human) (UniProt O96013)
CDK7 CCNH MNAT1 (human) = CDK7 CCNH MNAT1 (human) (UniProt P50613+P51948+P51946)
ZAP70 (human) = ZAP70 (human) (UniProt P43403)
BLK (human) = BLK (human) (UniProt P51451)
CDK4 CCND3 (human) = CDK4 CCND3 (human) (UniProt P30281+P11802)
PKN2 (human) = PKN2 (human) (UniProt Q16513)
CDK5 CDK5R1 p25 (human) = CDK5 CDK5R1 p25 (human) (UniProt Q00535+Q15078)
STK17A (human) = STK17A (human) (UniProt Q9UEE5)
STK11 (human) = STK11 (human) (UniProt Q15831)
EPHA8 (human) = EPHA8 (human) (UniProt P29322)
FGFR1 (human) = FGFR1 (human) (UniProt P11362)
GRK4 (human) = GRK4 (human) (UniProt P32298)
MAPK12 (human) = MAPK12 (human) (UniProt P53778)
PRKCZ (human) = PRKCZ (human) (UniProt Q05513)
AKT2 (human) = AKT2 (human) (UniProt P31751)
SRC (human) = SRC (human) (UniProt P12931)
INSRR (human) = INSRR (human) (UniProt P14616)
TAOK1 (human) = TAOK1 (human) (UniProt Q7L7X3)
WNK2 (human) = WNK2 (human) (UniProt Q9Y3S1)
HCK (human) = HCK (human) (UniProt P08631)
SGK2 (human) = SGK2 (human) (UniProt Q9HBY8)
WEE1 (human) = WEE1 (human) (UniProt P30291)
CSNK1D (human) = CSNK1D (human) (UniProt P48730)
HIPK2 (human) = HIPK2 (human) (UniProt Q9H2X6)
PRKCB1 (human) = PRKCB1 (human) (UniProt P05771)
MAPK13 (human) = MAPK13 (human) (UniProt O15264)
FGFR3 (human) = FGFR3 (human) (UniProt P22607)
PLK1 (human) = PLK1 (human) (UniProt P53350)
DDR2 (human) = DDR2 (human) (UniProt Q16832)
IKBKE (human) = IKBKE (human) (UniProt Q14164)
RPS6KB2 (human) = RPS6KB2 (human) (UniProt Q9UBS0)
BMX (human) = BMX (human) (UniProt P51813)
EPHA7 (human) = EPHA7 (human) (UniProt Q15375)
TGFBR2 (human) = TGFBR2 (human) (UniProt P37173)

Sequence of YES1 (human) (P07947 whole entry, looked up): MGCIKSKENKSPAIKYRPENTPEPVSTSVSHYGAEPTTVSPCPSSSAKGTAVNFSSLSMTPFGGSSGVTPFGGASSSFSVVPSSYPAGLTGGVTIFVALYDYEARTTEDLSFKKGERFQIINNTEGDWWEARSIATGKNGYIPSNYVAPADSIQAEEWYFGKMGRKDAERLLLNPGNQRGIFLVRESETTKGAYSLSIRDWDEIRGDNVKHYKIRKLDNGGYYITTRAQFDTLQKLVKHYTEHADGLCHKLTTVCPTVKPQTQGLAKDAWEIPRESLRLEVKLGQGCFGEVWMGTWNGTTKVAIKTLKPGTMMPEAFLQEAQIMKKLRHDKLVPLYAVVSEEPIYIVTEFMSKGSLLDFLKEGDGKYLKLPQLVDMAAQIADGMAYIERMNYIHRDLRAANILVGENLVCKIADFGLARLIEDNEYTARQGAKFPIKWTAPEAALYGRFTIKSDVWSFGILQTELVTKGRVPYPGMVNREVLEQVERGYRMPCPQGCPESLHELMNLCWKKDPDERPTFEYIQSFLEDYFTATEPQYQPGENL
Sequence of BLK (human) (P51451 whole entry, looked up): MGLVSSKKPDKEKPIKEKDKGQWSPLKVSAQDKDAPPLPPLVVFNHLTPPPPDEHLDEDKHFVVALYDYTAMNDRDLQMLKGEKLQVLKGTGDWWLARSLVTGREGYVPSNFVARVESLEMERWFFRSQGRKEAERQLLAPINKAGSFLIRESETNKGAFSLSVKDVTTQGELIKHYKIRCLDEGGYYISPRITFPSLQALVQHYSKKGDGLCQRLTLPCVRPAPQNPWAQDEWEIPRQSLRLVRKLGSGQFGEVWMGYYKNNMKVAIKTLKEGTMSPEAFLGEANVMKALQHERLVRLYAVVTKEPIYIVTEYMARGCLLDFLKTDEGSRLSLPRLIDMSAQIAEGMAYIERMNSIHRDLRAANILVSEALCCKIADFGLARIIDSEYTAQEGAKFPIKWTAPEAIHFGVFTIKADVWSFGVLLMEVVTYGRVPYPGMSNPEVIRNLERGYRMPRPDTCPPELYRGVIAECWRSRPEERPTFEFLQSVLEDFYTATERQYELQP
Sequence of CSNK1D (human) (P48730 whole entry, looked up): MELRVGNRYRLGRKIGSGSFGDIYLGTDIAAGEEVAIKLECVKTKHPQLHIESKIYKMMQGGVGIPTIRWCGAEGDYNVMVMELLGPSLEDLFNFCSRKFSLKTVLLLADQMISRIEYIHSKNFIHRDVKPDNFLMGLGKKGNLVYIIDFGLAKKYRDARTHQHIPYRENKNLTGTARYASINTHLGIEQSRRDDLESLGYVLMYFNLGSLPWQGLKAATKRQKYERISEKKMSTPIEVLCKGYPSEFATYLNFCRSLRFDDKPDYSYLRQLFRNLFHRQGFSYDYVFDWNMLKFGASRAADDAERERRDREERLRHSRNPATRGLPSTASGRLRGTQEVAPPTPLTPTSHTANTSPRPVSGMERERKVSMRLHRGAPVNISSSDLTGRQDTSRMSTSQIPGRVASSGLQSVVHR
Sequence of TAOK1 (human) (Q7L7X3 whole entry, looked up): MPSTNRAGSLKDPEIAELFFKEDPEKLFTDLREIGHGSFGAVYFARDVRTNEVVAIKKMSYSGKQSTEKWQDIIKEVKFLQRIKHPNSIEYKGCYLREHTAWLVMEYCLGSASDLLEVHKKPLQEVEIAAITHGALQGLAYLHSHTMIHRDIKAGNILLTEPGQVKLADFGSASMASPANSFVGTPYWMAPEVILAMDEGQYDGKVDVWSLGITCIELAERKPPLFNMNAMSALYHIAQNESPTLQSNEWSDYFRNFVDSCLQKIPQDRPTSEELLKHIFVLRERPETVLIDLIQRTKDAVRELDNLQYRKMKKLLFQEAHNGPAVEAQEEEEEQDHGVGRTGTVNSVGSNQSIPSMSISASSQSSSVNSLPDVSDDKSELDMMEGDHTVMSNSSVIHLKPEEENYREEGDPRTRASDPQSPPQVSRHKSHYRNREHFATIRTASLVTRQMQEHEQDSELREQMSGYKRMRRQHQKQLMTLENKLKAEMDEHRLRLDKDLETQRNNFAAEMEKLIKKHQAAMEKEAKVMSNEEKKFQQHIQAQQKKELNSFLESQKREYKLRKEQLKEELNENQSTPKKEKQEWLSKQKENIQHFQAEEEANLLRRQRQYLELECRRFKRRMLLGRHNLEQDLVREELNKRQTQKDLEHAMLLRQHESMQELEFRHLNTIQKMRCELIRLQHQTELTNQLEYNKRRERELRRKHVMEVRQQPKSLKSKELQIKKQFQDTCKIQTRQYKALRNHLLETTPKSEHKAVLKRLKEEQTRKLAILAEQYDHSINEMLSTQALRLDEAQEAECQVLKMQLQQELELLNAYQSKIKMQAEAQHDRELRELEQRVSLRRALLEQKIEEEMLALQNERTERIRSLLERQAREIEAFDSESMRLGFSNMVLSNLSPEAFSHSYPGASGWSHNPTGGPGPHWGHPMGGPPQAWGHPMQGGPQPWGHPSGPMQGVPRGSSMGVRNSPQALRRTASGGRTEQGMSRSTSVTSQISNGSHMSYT
Sequence of STK11 (human) (Q15831 whole entry, looked up): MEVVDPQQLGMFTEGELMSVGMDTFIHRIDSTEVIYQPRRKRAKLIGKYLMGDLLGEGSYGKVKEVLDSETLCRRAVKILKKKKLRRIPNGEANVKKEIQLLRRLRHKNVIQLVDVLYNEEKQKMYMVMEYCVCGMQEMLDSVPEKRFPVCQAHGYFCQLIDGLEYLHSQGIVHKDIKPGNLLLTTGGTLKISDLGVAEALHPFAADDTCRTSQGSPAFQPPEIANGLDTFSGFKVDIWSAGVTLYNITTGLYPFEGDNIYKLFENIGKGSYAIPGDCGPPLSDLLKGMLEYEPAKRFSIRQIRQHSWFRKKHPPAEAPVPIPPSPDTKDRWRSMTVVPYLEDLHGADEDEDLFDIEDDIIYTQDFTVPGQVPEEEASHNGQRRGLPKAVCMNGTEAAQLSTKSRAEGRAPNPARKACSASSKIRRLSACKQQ
Sequence of MAPK12 (human) (P53778 whole entry, looked up): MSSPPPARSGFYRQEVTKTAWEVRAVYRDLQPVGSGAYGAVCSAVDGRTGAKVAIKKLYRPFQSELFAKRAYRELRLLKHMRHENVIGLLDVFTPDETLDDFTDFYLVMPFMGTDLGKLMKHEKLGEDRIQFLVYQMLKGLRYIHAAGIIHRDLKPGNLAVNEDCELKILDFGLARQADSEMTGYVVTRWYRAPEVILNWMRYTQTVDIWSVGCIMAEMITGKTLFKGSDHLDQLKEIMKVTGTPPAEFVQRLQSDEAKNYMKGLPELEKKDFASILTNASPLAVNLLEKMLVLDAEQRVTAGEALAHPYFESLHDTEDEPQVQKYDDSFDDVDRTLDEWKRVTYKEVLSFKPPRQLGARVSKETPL
Sequence of GRK4 (human) (P32298 whole entry, looked up): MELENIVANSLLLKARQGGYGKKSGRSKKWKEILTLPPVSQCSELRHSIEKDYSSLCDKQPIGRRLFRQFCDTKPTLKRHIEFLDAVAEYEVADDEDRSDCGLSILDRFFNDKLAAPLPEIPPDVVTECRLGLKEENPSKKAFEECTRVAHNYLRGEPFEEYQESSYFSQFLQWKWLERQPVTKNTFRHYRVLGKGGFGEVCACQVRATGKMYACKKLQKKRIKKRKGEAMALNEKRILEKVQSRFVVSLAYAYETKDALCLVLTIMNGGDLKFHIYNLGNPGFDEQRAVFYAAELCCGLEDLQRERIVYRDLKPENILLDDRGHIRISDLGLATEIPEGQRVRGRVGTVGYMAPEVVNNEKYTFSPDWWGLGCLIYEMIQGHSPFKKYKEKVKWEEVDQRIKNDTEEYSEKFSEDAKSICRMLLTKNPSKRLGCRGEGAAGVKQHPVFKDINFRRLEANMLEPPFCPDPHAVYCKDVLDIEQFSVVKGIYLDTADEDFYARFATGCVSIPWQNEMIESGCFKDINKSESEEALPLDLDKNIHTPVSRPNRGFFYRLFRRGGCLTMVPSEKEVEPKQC
Sequence of AKT2 (human) (P31751 whole entry, looked up): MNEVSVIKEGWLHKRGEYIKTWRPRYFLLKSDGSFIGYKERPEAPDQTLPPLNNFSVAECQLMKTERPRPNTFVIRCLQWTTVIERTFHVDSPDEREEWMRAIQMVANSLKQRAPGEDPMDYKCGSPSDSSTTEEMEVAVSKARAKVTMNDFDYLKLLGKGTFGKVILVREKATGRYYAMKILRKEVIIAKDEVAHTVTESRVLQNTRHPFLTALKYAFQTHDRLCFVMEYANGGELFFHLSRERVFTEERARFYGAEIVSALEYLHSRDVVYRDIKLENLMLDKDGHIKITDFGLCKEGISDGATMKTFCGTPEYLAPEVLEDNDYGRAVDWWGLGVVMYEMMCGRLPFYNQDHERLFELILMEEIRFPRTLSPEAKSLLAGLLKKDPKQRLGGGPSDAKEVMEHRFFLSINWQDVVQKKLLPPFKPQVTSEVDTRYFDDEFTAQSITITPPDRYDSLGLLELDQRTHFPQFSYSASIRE
Sequence of ZAP70 (human) (P43403 whole entry, looked up): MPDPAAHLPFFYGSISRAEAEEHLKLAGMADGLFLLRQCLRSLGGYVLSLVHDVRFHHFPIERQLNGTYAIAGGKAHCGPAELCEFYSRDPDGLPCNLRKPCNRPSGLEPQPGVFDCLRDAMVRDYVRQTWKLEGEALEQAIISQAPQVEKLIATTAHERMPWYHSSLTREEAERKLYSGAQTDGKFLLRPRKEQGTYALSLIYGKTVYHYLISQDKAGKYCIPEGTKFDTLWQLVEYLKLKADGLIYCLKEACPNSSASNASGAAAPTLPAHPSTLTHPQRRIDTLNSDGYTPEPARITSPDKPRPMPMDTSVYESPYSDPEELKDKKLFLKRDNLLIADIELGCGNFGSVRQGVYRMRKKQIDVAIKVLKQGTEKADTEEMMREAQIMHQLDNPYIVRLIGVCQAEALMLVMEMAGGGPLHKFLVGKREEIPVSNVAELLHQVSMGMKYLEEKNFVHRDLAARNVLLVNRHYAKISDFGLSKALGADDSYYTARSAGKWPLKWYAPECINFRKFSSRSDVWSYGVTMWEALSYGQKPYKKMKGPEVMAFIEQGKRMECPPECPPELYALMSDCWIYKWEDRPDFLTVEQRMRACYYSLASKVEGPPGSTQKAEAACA

CC(=O)c1ccc(N2CCOCC2)cc1O
residual activity (NEK7 (human)): 101%
residual activity (MST4 (human)): 99.5%
residual activity (DMPK (human)): 105%
residual activity (GSG2 (human)): 79.6%
residual activity (DCLK2 (human)): 101%
residual activity (YES1 (human)): 100%
residual activity (RPS6KA5 KD2 (human)): 105%
residual activity (MARK4 (human)): 99.4%
residual activity (PAK4 (human)): 103%
residual activity (CDK7 CCNH MNAT1 (human)): 105%
residual activity (ZAP70 (human)): 99.5%
residual activity (BLK (human)): 102%
residual activity (CDK4 CCND3 (human)): 96.4%
residual activity (PKN2 (human)): 94.8%
residual activity (CDK5 CDK5R1 p25 (human)): 99.7%
residual activity (STK17A (human)): 95.9%
residual activity (STK11 (human)): 103%
residual activity (EPHA8 (human)): 101%
residual activity (FGFR1 (human)): 91.4%
residual activity (GRK4 (human)): 106%
residual activity (MAPK12 (human)): 78.7%
residual activity (PRKCZ (human)): 111%
residual activity (AKT2 (human)): 96.2%
residual activity (SRC (human)): 104%
residual activity (INSRR (human)): 96.7%
residual activity (TAOK1 (human)): 99.4%
residual activity (WNK2 (human)): 101%
residual activity (HCK (human)): 116%
residual activity (SGK2 (human)): 101%
residual activity (WEE1 (human)): 97.5%
residual activity (CSNK1D (human)): 100%
residual activity (HIPK2 (human)): 106%
residual activity (PRKCB1 (human)): 96.3%
residual activity (MAPK13 (human)): 104%
residual activity (FGFR3 (human)): 105%
residual activity (PLK1 (human)): 94.3%
residual activity (DDR2 (human)): 104%
residual activity (IKBKE (human)): 105%
residual activity (RPS6KB2 (human)): 101%
residual activity (BMX (human)): 90.6%
residual activity (EPHA7 (human)): 95.5%
residual activity (TGFBR2 (human)): 132%

Cc1ccc(Nc2nccc(N(C)c3ccc4c(C)n(C)nc4c3)n2)cc1S(N)(=O)=O
residual activity (NEK7 (human)): 101%
residual activity (MST4 (human)): 108%
residual activity (DMPK (human)): 93.5%
residual activity (GSG2 (human)): 90.4%
residual activity (DCLK2 (human)): 102%
residual activity (YES1 (human)): 52.6%
residual activity (RPS6KA5 KD2 (human)): 101%
residual activity (MARK4 (human)): 98%
residual activity (PAK4 (human)): 92%
residual activity (CDK7 CCNH MNAT1 (human)): 103%
residual activity (ZAP70 (human)): 92.6%
residual activity (BLK (human)): 75.6%
residual activity (CDK4 CCND3 (human)): 96%
residual activity (PKN2 (human)): 106%
residual activity (CDK5 CDK5R1 p25 (human)): 95.1%
residual activity (STK17A (human)): 95.9%
residual activity (STK11 (human)): 92.1%
residual activity (EPHA8 (human)): 90%
residual activity (GRK4 (human)): 91.7%
residual activity (MAPK12 (human)): 93.7%
residual activity (PRKCZ (human)): 97.7%
residual activity (AKT2 (human)): 107%
residual activity (SRC (human)): 70.7%
residual activity (INSRR (human)): 96.1%
residual activity (TAOK1 (human)): 28.9%
residual activity (WNK2 (human)): 98.2%
residual activity (HCK (human)): 64.8%
residual activity (SGK2 (human)): 160%
residual activity (WEE1 (human)): 95.3%
residual activity (CSNK1D (human)): 95.4%
residual activity (HIPK2 (human)): 105%
residual activity (PRKCB1 (human)): 91%
residual activity (MAPK13 (human)): 94.6%
residual activity (FGFR3 (human)): 39.3%
residual activity (PLK1 (human)): 99.5%
residual activity (DDR2 (human)): 36.2%
residual activity (IKBKE (human)): 87%
residual activity (RPS6KB2 (human)): 103%
residual activity (BMX (human)): 93.4%
residual activity (EPHA7 (human)): 94.1%
residual activity (TGFBR2 (human)): 100%
